Measured values taken from publication PMC11435058, “Synthesis of New Thiazole-Privileged Chalcones as Tubulin Polymerization Inhibitors with Potential Anticancer Activities” (Pharmaceuticals, 2024).
Where two headings read alike, the source gives them in different places.

What was measured:
MDA-MB-468 = assay: NCI-60 anticancer screen (SRB; single dose and five doses); type: cell-based, human; conditions: Homo sapiens, 48 h; MDA-MB-468; dose of 10 μM; read-out: Growth Percentage
Protocol: The methodology of the NCI anticancer screening has been described in detail elsewhere (http://www.dtp.nci.nih.gov). For detailed information, see Appendix A in the Supplementary Materials.
4.2.1. Screening of the anticancer activity against a panel of 60 cell Lines.
The methodology of the NCI anticancer screening has been described in detail elsewhere (http://www.dtp.nci.nih.gov.) Briefly, the primary anticancer assay was performed at approximately 60 human tumor cell lines panel derived from nine neoplastic diseases, in accordance with the protocol of the Drug Evaluation Branch, National Cancer Institute, Bethesda. Tested compounds were added to the culture at a single concentration (10μM) and the cultures were incubated for 48 h. End -point determinations were made with a protein binding dye, SRB. Results for each tested compound was reported as the percent of growth of the treated cells when compared to the untreated control cells. The percentage growth was evaluated spectrophotometrically versus controls not treated with test agents. […]

[1] = test system: 60 human tumor cell lines panel; assay: NCI-60 anticancer screen, whole panel (means and ranges over the cell lines); type: cell-based; conditions: Homo sapiens, 48 h
OVCAR-3 = assay: cells; conditions: Homo sapiens, OVCAR-3, 48 h, read-out: Growth Percentage
K-562 = assay: NCI-60 anticancer screen (SRB; single dose and five doses); conditions: Homo sapiens, K562, 48 h, read-out: Growth Percentage
EKVX = assay: as above; conditions: Homo sapiens, 48 h, read-out: Growth Percentage
HOP-92 = assay: as above; conditions: Homo sapiens, HOP-92, 48 h, read-out: Growth Percentage
NCI-H226 = assay: as above; conditions: Homo sapiens, NCI-H226, 48 h, read-out: Growth Percentage
NCI-H522 = assay: as above; conditions: Homo sapiens, NCI-H522, 48 h, read-out: Growth Percentage
COLO 205 = assay: as above; conditions: Homo sapiens, COLO 205, 48 h, read-out: Growth Percentage
HCT-116 = assay: as above; conditions: Homo sapiens, HCT-116, 48 h, read-out: Growth Percentage
HCT-15 = assay: as above; conditions: Homo sapiens, HCT-15, 48 h, read-out: Growth Percentage
HT29 = assay: as above; conditions: Homo sapiens, HT-29, 48 h, read-out: Growth Percentage
SF-268 = assay: as above; conditions: Homo sapiens, SF-268, 48 h, read-out: Growth Percentage
U251 = assay: as above; conditions: Homo sapiens, U-251, 48 h, read-out: Growth Percentage
SK-MEL-2 = assay: as above; conditions: Homo sapiens, SK-MEL-2, 48 h, read-out: Growth Percentage
UACC-62 = assay: as above; conditions: Homo sapiens, UACC-62, 48 h, read-out: Growth Percentage
OVCAR-8 = assay: as above; conditions: Homo sapiens, OVCAR-8, 48 h, read-out: Growth Percentage
ACHN = assay: as above; conditions: Homo sapiens, 48 h, read-out: Growth Percentage
CAKI-1 = assay: as above; conditions: Homo sapiens, CAKI-1, 48 h, read-out: Growth Percentage
MCF7 = assay: as above; conditions: Homo sapiens, MCF7, 48 h, read-out: Growth Percentage
HS 578T = assay: as above; conditions: Homo sapiens, 48 h, read-out: Growth Percentage
NCI-H322M = assay: as above; conditions: Homo sapiens, 48 h, read-out: Growth Percentage
SNB-75 = assay: as above; conditions: Homo sapiens, SNB-75, 48 h, read-out: Growth Percentage
IGROV1 = assay: as above; conditions: Homo sapiens, IGROV-1, 48 h, read-out: Growth Percentage
UO-31 = assay: as above; conditions: Homo sapiens, UO-31, 48 h, read-out: Growth Percentage
[2] = read-out: growth percentages against most of the tested cells (lowest to highest)
[3] = mean over the tested cell lines, dose of 10 μM, read-out: Mean growth percentage
[4] = range over the cell lines, dose of 10 μM, read-out: growth percentages against most of the tested cells (lowest to highest)

SMILES	activity at 10 µM (MDA-MB-468)	activity at 10 µM [1, 3]	activity at 10 µM (OVCAR-3)	activity at 10 µM (K-562)	activity at 10 µM (EKVX)	activity at 10 µM (NCI-H226)	activity at 10 µM (NCI-H522)	activity at 10 µM (HCT-116)	activity at 10 µM (HCT-15)	activity at 10 µM (HT29)	activity at 10 µM (SF-268)	activity at 10 µM (U251)	activity at 10 µM (SK-MEL-2)	activity at 10 µM (UACC-62)	activity at 10 µM (OVCAR-8)	activity at 10 µM (ACHN)	activity at 10 µM (CAKI-1)	activity at 10 µM (MCF7)	activity at 10 µM (HS 578T)	activity at 10 µM (NCI-H322M)	also measured
COc1ccc(/C=C/C(=O)c2sc(=S)[nH]c2C)c(OC)c1 [2n, (E)-3-(2,4-Dimethoxyphenyl)-1-(4-Methyl-2-Thioxo-2,3-Dihydrothiazol-5-yl)Prop-2-En-1-One]	19.2%	75.1%	91.2%	48.9%	56.2%	79.7%	73.5%	62.3%	45.8%	115%	89.7%	68.6%	64.7%	65.2%	81.5%	77%	82.8%	46%	89.5%	–	activity at 10 µM [1, 2]: 19.2 to 123%; activity at 10 µM (HOP-92): 103%; activity at 10 µM (COLO 205): 123%
COc1ccc(/C=C/C(=O)c2sc(=S)[nH]c2C)cc1 [2l, (E)-3-(4-Methoxyphenyl)-1-(4-Methyl-2-Thioxo-2,3-Dihydrothiazol-5-yl)Prop-2-En-1-One]	15.1%	74.6%	66.9%	56.6%	84.8%	93.6%	61.4%	76%	50.8%	96.8%	81%	62.3%	80.3%	71.8%	76.9%	85.6%	59%	30.8%	96.5%	92.4%	activity at 10 µM [1, 2]: 15.1 to 120%; activity at 10 µM (HOP-92): 101%; activity at 10 µM (SNB-75): 98%; activity at 10 µM (IGROV1): 89.1%; activity at 10 µM (UO-31): 49%
COc1cccc(/C=C/C(=O)c2sc(=S)[nH]c2C)c1OC [2m, (E)-3-(2,3-Dimethoxyphenyl)-1-(4-Methyl-2-Thioxo-2,3-Dihydrothiazol-5-yl)Prop-2-En-1-One]	41.1%	49.9%	24.3%	27.5%	54.5%	90.8%	32.9%	46.5%	32.7%	–	54%	20.3%	94.2%	45.5%	44.6%	52.5%	41.9%	16.6%	49.2%	62.8%	activity at 10 µM [1, 4]: 5.15 to 109%; activity at 10 µM (HOP-92): 61.5%; activity at 10 µM (COLO 205): 103%; activity at 10 µM (SNB-75): 50.4%; activity at 10 µM (IGROV1): 73.9%; activity at 10 µM (UO-31): 53.7%
Cc1[nH]c(=S)sc1C(=O)/C=C/c1cccc(F)c1 [2b, (E)-3-(3-Fluorophenyl)-1-(4-Methyl-2-Thioxo-2,3-Dihydrothiazol-5-yl)Prop-2-En-1-One]	-22.7%	47.5%	-1.17%	22.8%	68.6%	85.7%	63.9%	21.2%	19.1%	47.1%	82.3%	17.6%	81.2%	58.3%	60.5%	56%	37.7%	7.97%	79.8%	84.5%	activity at 10 µM [1, 2]: -22.7 to 106%; activity at 10 µM (COLO 205): 94.5%; activity at 10 µM (IGROV1): 32.3%; activity at 10 µM (UO-31): 44.3%
Cc1[nH]c(=S)sc1C(=O)/C=C/c1ccccc1Cl [2d, (E)-3-(2-Chlorophenyl)-1-(4-Methyl-2-Thioxo-2,3-Dihydrothiazol-5-yl)Prop-2-En-1-One]	30.8%	79.4%	77.4%	47.4%	35.6%	89.6%	90.1%	44.6%	57.4%	122%	80.4%	63.3%	84.8%	72.9%	85.4%	93.4%	68.5%	28.9%	92.8%	106%	activity at 10 µM [1, 4]: 14.1 to 116%; activity at 10 µM (COLO 205): 118%; activity at 10 µM (IGROV1): 91.9%; activity at 10 µM (UO-31): 73.7%
Cc1[nH]c(=S)sc1C(=O)/C=C/c1ccccc1 [2a, (E)-1-(4-Methyl-2-Thioxo-2,3-Dihydrothiazol-5-yl)-3-Phenylprop-2-En-1-One]	20.8%	65%	42.7%	51%	73.1%	96.5%	71.7%	49.4%	35%	99.7%	69.8%	56.9%	68.2%	65.3%	65.8%	71.8%	52.5%	19.8%	90.1%	66.5%	activity at 10 µM [1, 4]: 14.1 to 129%; activity at 10 µM (HOP-92): 89.6%; activity at 10 µM (SNB-75): 92.7%; activity at 10 µM (IGROV1): 81.8%; activity at 10 µM (UO-31): 39.3%
